Reference: patent US20240182406A1, “COMPOUNDS AS SOLUBLE EPOXIDE HYDROLASE INHIBITORS” (UNIVERSITAT DE BARCELONA, priority 2021, published 2024)
Marks after values point to notes of the source that are not given here.

How the values were obtained:
[1] = target: human sEH (Homo sapiens (Human), UniProt P34913); assay: In vitro determination of sEH inhibition activity (fluorescent assay, CMNPC substrate); assay type: biochemical; conditions: purified recombinant human sEH, CMNPC 5 μM, 30° C., mean of triplicate
human sEH, sequence (P34913 whole entry): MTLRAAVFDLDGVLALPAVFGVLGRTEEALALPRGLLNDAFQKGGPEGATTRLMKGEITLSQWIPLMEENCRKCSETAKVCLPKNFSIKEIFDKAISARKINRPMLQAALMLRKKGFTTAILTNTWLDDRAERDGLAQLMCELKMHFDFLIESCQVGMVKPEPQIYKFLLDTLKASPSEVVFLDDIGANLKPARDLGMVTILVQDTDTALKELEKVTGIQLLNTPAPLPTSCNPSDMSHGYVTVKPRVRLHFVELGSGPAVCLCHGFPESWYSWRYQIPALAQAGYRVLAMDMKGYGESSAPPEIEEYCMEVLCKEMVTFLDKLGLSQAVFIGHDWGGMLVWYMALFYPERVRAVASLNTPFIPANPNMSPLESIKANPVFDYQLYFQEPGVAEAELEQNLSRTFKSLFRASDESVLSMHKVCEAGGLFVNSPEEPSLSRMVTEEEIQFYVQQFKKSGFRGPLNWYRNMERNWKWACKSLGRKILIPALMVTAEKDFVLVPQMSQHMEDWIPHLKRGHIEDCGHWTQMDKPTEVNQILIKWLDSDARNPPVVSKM
Experimental: Cyano(6-methoxynaphthalen-2-yl)methyl 2-(3-phenyloxiran-2-yl)methylcarbonate (CMNPC); cf. Morisseau, C.; Hammock, B. D. Measurement of soluble epoxide hydrolase (sEH) activity. Curr. Protoc. Toxicol.
The fluorescent assay was used with purified recombinant human or mouse sEH proteins. The enzymes were incubated at 30° C. with the inhibitors ([I]final=0.4-100,000 nM) for 5 min in 100 mM sodium phosphate buffer (200 μL, pH 7.4) containing 0.1 mg/mL of BSA and 1% of DMSO. The substrate (CMNPC) was then added ([S]final=5 μM). […] Results were obtained by regression analysis from a linear region of the curve.

[2] = In vitro determination of microsomal stability; assay type: in vitro ADME; conditions: human microsomes, 37° C., samples at 0-60 min
Experimental: The human recombinant microsomes employed were purchased from Tebu-Xenotech. […] Samples (75 μL) were taken from each well at 0, 10, 20, 40 and 60 min and transferred to a plate containing 4° C. 75 μL acetonitrile and 30 μL of 0.5% formic acid in water were added for improving the chromatographic conditions. The plate was centrifuged (46000 g, 30 min) and supernatants were taken and analyzed in a UPLC-MS/MS (Xevo-TQD, Waters) by employing a BEH C18 column and an isocratic gradient of 0.1% formic acid in water:0.1% formic acid acetonitrile (60:40). The metabolic stability of the compounds was calculated from the logarithm of the remaining compounds at each of the time points studied.

[3] = test system: CD1 mice; assay: Seizure assay (pentylenetetrazole, PTZ test); assay type: in vivo, mouse; conditions: 5 mg/kg by gavage 1 h prior to PTZ 85 mg/Kg s.c., monitored 30 min
Experimental: Test compounds were dissolved in 20% hydroxypropyl-beta-cyclodextrin and concentration was calculated according to the animal weigh to reach the precise dose. Animals were housed in standard care facilities with a 12 hours light-dark cycle with free access to water and food.
To investigate the ability of compounds to cross the blood-brain barrier (BBB), a standard acute test involving the administration of pro-convulsant pentylenetetrazole (PTZ) was employed [Inceoglu et al, PLoS ONE, 2013, 8(12), e80922; WO 2015/148954 A1]. In the test, PTZ was administered at 85 mg/Kg by subcutaneous route, time to onset of first clonic seizure, average of clonic seizures, tonic seizure latency and lethality were monitored for 30 min. Vehicles or compounds were administered by gavage at 5 mg/kg 1 h prior to pro-convulsant.

Compound | IC50 [1] [nM] | Microsomal stability (% remanent) [2] [%] | melting point | Average clonic seizure [3] | Mean time to clonic seizure latency [3] [s] | Protected from tonic/total (Mortality) [3]
O=C(NC12CC3CC(F)(CC(C1)c1ccccc13)C2)N[C@H]1CC[C@H](Oc2ccc(C(=O)O)cc2)CC1 [Example 1, 4-[((1r,4r)-4-(3-(9-fluoro-5,6,8,9,10,11-hexahydro-7H-5,9:7,11-dimethanobenzo[9]annulen-7-yl)ureido)cyclohexyl)oxy]benzoic acid] | 0.5 | 77 | – | – | – | –
COc1cc2c(cc1OC)C1CC3(F)CC2CC(NC(=O)NC2CCN(C(=O)C4CCOCC4)CC2)(C1)C3 [Example 5, 1-(9-fluoro-2,3-dimethoxy-5,6,8,9,10,11-hexahydro-7H-5,9:7,11-dimethanobenzo[9]annulen-7-yl)-3-(1-(tetrahydro-2H-pyran-4-carbonyl)piperidin-4-yl)urea] | 0.6 | 100 | – | – | – | –
COc1cc2c(cc1OC)C1CC3(Cl)CC2CC(NC(=O)NC2CCN(C(=O)C4CCOCC4)CC2)(C1)C3 [Example 6, 1-(9-chloro-2,3-dimethoxy-5,6,8,9,10,11-hexahydro-7H-5,9:7,11-dimethanobenzo[9]annulen-7-yl)-3-(1-(tetrahydro-2H-pyran-4-carbonyl)piperidin-4-yl)urea] | 0.4 | 42 | 147 to 150 °C | – | – | –
O=C(NC1CCN(c2ccc(C(=O)O)cc2)CC1)NC12CC3CC(F)(CC(C1)c1ccccc13)C2 [Example 13, 4-(4-(3-(9-fluoro-5,6,8,9,10,11-hexahydro-7H-5,9:7,11-dimethanobenzo[9]annulen-7-yl)ureido)piperidin-1-yl)benzoic acid] | 0.5 | 100 | 267 to 268 °C | – | – | –
O=C(NC1CCN(c2ccc(C(=O)O)cc2)CC1)NC12CC3CC(Cl)(CC(C1)c1ccccc13)C2 [Example 14, 4-(4-(3-(9-chloro-5,6,8,9,10,11-hexahydro-7H-5,9:7,11-dimethanobenzo[9]annulen-7-yl)ureido)piperidin-1-yl)benzoic acid] | 0.4 | 99 | 226 to 227 °C | – | – | –
COC(=O)c1ccc(C(=O)N2CCC(NC(=O)NC34CC5CC(Cl)(CC(C3)c3ccccc35)C4)CC2)cc1 [Example 15, methyl 4-(4-(3-(9-chloro-5,6,8,9,10,11-hexahydro-7H-5,9:7,11-dimethanobenzo[9]annulen-7-yl)ureido)piperidine-1-carbonyl)benzoate] | – | – | 128 to 129 °C | – | – | –
O=C(NC1CCN(C(=O)c2ccc(C(=O)O)cc2)CC1)NC12CC3CC(Cl)(CC(C1)c1ccccc13)C2 [Example 16, 4-(4-(3-(9-chloro-5,6,8,9,10,11-hexahydro-7H-5,9:7,11-dimethanobenzo[9]annulen-7-yl)ureido)piperidine-1-carbonyl)benzoic acid] | 0.4 | 88 | 200 °C (dec.) | – | – | –
CCC(=O)N1CCC(NC(=O)Nc2ccc(OC(F)(F)F)cc2)CC1 [TPPU, N-[1-(1-Oxopropyl)-4-piperidinyl]-N′-[4-(trifluoromethoxy)phenyl]urea, reference compound] | – | – | – | 3.67 | 605.33 | 5/6****

Second part, led by results:

IC50 [1] [nM] | Microsomal stability (% remanent) [2] [%] | melting point | Compound | Average clonic seizure [3] | Mean time to clonic seizure latency [3] [s] | Protected from tonic/total (Mortality) [3]
– | 1 | – | CC(=O)N1CCC(NC(=O)NC23CC4CC(C)(CC(C2)c2ccccc24)C3)CC1 [Example C1, 1-(1-acetylpiperidin-4-yl)-3-(9-methyl-5,6,8,9,10,11-hexahydro-7H-5,9:7,11-dimethanobenzo[9]annulen-7-yl)urea] | – | – | –
4.7 | 0.1 | – | CC12CC3CC(NC(=O)NC4C[C@H]5CC[C@@H](C4)N5Cc4ccccc4)(CC(C1)c1ccccc13)C2 (stereo partly drawn) [Example C2, 1-((1R,3s,5S)-8-benzyl-8-azabicyclo[3.2.1]octan-3-yl)-3-(9-methyl-5,6,8,9,10,11-hexahydro-7H-5,9:7,11-dimethanobenzo[9]annulen-7-yl)urea] | – | – | –
1.1 | 7 | – | CC12CC3CC(NC(=O)Nc4ccc(F)c(F)c4F)(CC(C1)c1ccccc13)C2 [Example C4, 1-(9-methyl-6,7,8,9,10,11-hexahydro-5H-5,9:7,11-dimethanobenzo[9]annulen-7-yl)-3-(2,3,4-trifluorophenyl)urea] | – | – | –
1.5 | 0.1 | – | CC12CC3CC(NC(=O)NC4CCN(Cc5ccccc5)CC4)(CC(C1)c1ccccc13)C2 [Example C5, 1-(1-benzylpiperidin-4-yl)-3-(9-methyl-5,6,8,9,10,11-hexahydro-7H-5,9:7,11-dimethanobenzo[9]annulen-7-yl)urea] | – | – | –
0.9 | 22 | – | CC(=O)N1CCC(NC(=O)NC23CC4CC(C)(CC(C2)c2cc(F)ccc24)C3)CC1 (centres unmarked) [Example C8, 1-(1-acetylpiperidin-4-yl)-3-(2-fluoro-9-methyl-5,6,8,9,10,11-hexahydro-7H-5,9:7,11-dimethanobenzo[9]annulen-7-yl)urea] | – | – | –
0.9 | 16 | – | CC(=O)N1CCC(NC(=O)NC23CC4CC(C)(CC(C2)c2c(F)cccc24)C3)CC1 (centres unmarked) [Example C9, 1-(1-acetylpiperidin-4-yl)-3-(1-fluoro-9-methyl-5,6,8,9,10,11-hexahydro-7H-5,9:7,11-dimethanobenzo[9]annulen-7-yl)urea] | – | – | –
1.2 | 33 | – | COc1ccc2c(c1)C1CC3(C)CC2CC(NC(=O)NC2CCN(C(C)=O)CC2)(C1)C3 (centres unmarked) [Example C10, 1-(1-acetylpiperidin-4-yl)-3-(2-methoxy-9-methyl-5,6,8,9,10,11-hexahydro-7H-5,9:7,11-dimethanobenzo[9]annulen-7-yl)urea] | – | – | –
2.9 | 0.7 | – | CC(=O)c1ccc(N2CCC(NC(=O)NC34CC5CC(C)(CC(C3)c3ccccc35)C4)CC2)cc1 [Example C12, 1-(1-(4-acetylphenyl)piperidin-4-yl)-3-(9-methyl-5,6,8,9,10,11-hexahydro-7H-5,9:7,11-dimethanobenzo[9]annulen-7-yl)urea] | – | – | –
